# Source: ChEMBL document CHEMBL4673185 (RSC Med Chem, 2020)
# Residues, ends and D or L forms follow the SMILES beside them.
# Biological target: T1, Acid-sensing ion channel 3 (Rattus norvegicus, UniProt O35240)
# T1 sequence (O35240 whole entry): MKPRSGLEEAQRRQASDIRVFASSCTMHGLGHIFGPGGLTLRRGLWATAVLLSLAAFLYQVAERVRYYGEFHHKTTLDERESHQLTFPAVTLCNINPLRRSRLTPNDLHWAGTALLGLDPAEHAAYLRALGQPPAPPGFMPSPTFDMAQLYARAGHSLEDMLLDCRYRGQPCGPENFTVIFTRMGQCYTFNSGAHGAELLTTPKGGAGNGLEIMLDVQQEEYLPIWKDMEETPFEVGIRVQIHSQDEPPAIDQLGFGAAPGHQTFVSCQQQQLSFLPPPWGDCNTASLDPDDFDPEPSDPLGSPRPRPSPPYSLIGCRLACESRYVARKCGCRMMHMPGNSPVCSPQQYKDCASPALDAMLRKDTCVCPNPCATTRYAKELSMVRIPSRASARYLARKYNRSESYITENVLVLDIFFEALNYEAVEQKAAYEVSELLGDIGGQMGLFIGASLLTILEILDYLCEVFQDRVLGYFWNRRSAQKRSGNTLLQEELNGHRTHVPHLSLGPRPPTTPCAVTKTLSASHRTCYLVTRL
# Experiment: Modulation of rat ASIC3 expressed in Xenopus laevis oocytes at -70 mV holding potential by two-electrode voltage clamp method
# Assay type: cell-based
smiles,measurement,value
N=C(N)NCCC[C@H](NC(=O)[C@@H]1CCCN1C(=O)[C@@H](N)CCCNC(=N)N)C(=O)N[C@@H](Cc1ccccc1)C(=O)O (H-RPRF-OH),EC50,3 µM
